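In this assay, cells in 96-well plates receive the compound at five concentrations for 48 hours. Endpoints are linearly interpolated between the surrounding concentrations. The concentration for 50% growth inhibition is given as GI50.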 Activity calls are given as the source filed them. No stated cut-off is given here; in the data, active = GI50 up to about 1.1 µM and inactive = higher.
Key:
Experiment in all cases: NCI anticancer screen, dose series, 48 h
CAKI-1 = tested on: CAKI-1
HCT-15 = tested on: HCT-15
T47D = tested on: T47D
HT-29 = tested on: HT-29
OVCAR-3 = tested on: OVCAR-3
HOP-62 = tested on: HOP-62
MDA-N = tested on: MDA-N
NCI-H226 = tested on: NCI-H226
HL-60 = tested on: HL-60
MCF7 = tested on: MCF7
SNB-19 = tested on: SNB-19
HOP-92 = tested on: HOP-92
SNB-75 = tested on: SNB-75
UO-31 = tested on: UO-31
A549 = tested on: A549
RXF 393 = tested on: RXF 393
786-0 = tested on: 786-0
SF-268 = tested on: SF-268
A498 = tested on: A498
RPMI-8226 = tested on: RPMI-8226
MOLT-4 = tested on: MOLT-4
OVCAR-5 = tested on: OVCAR-5
SK-MEL-2 = tested on: SK-MEL-2
SF-295 = tested on: SF-295
UACC-257 = tested on: UACC-257
SK-OV-3 = tested on: SK-OV-3
HCT-116 = tested on: HCT-116
K562 = tested on: K562
OVCAR-4 = tested on: OVCAR-4
Hs-578T = tested on: Hs-578T
Malme-3M = tested on: Malme-3M
LOX IMVI = tested on: LOX IMVI
BT-549 = tested on: BT-549
TK-10 = tested on: TK-10
NCI-H460 = tested on: NCI-H460
NCI/ADR-RES = tested on: NCI/ADR-RES
M14 = tested on: M14
KM12 = tested on: KM12
MDA-MB-231 = tested on: MDA-MB-231
CCRF-CEM = tested on: CCRF-CEM
COLO 205 = tested on: COLO 205
NCI-H23 = tested on: NCI-H23
IGROV-1 = tested on: IGROV-1
MDA-MB-435 = tested on: MDA-MB-435
NCI-H522 = tested on: NCI-H522
SF-539 = tested on: SF-539
U-251 = tested on: U-251
UACC-62 = tested on: UACC-62
ACHN = tested on: ACHN
OVCAR-8 = tested on: OVCAR-8
SK-MEL-5 = tested on: SK-MEL-5
SR = tested on: SR
PC-3 = tested on: PC-3
EKVX = tested on: EKVX
HCC 2998 = tested on: HCC 2998
DU-145 = tested on: DU-145
SN12C = tested on: SN12C
SK-MEL-28 = tested on: SK-MEL-28
SW-620 = tested on: SW-620

Q: Which GI50 (CAKI-1) does the source give for `CN1C(=O)C2C(=O)N(Cc3ccccc3)CC(=O)N2c2cccnc21` (configuration not stated) here?
A: > 100 µM (inactive)

Q: And the GI50 (HCT-15)?
A: > 100 µM

Q: What about the GI50 (T47D) of the same molecule?
A: > 100 µM (inactive)

Q: And the GI50 (HT-29)?
A: > 100 µM (inactive)

Q: What about the GI50 (OVCAR-3) of the same molecule?
A: > 100 µM (inactive)

Q: And the GI50 (HOP-62)?
A: > 100 µM (inactive)

Q: And the GI50 (MDA-N)?
A: > 100 µM (inactive)

Q: And the GI50 (NCI-H226)?
A: > 100 µM (inactive)

Q: What about the GI50 (HL-60) of the same molecule?
A: > 100 µM (inactive)

Q: And the GI50 (MCF7)?
A: > 100 µM (inactive)

Q: What about the GI50 (SNB-19) of the same molecule?
A: > 100 µM (inactive)

Q: What about the GI50 (HOP-92) of the same molecule?
A: > 100 µM (inactive)

Q: And the GI50 (SNB-75)?
A: > 100 µM (inactive)

Q: And the GI50 (UO-31)?
A: > 100 µM (inactive)

Q: What about the GI50 (A549) of the same molecule?
A: > 100 µM (inactive)

Q: What about the GI50 (RXF 393) of the same molecule?
A: > 100 µM (inactive)

Q: What about the GI50 (786-0) of the same molecule?
A: > 100 µM (inactive)

Q: What about the GI50 (SF-268) of the same molecule?
A: > 100 µM (inactive)

Q: And the GI50 (A498)?
A: > 100 µM (inactive)

Q: What about the GI50 (RPMI-8226) of the same molecule?
A: > 100 µM (inactive)

Q: And the GI50 (MOLT-4)?
A: > 100 µM (inactive)

Q: What about the GI50 (OVCAR-5) of the same molecule?
A: > 100 µM (inactive)

Q: What about the GI50 (SK-MEL-2) of the same molecule?
A: > 100 µM (inactive)

Q: And the GI50 (SF-295)?
A: > 100 µM (inactive)

Q: And the GI50 (UACC-257)?
A: > 100 µM (inactive)

Q: What about the GI50 (SK-OV-3) of the same molecule?
A: > 100 µM (inactive)

Q: What about the GI50 (HCT-116) of the same molecule?
A: > 100 µM (inactive)

Q: And the GI50 (K562)?
A: > 100 µM (inactive)

Q: What about the GI50 (OVCAR-4) of the same molecule?
A: > 100 µM (inactive)

Q: And the GI50 (Hs-578T)?
A: > 100 µM (inactive)

Q: What about the GI50 (Malme-3M) of the same molecule?
A: 70.5 µM (inactive)

Q: What about the GI50 (LOX IMVI) of the same molecule?
A: > 100 µM (inactive)

Q: And the GI50 (BT-549)?
A: > 100 µM (inactive)

Q: What about the GI50 (TK-10) of the same molecule?
A: > 100 µM (inactive)

Q: What about the GI50 (NCI-H460) of the same molecule?
A: > 100 µM (inactive)

Q: And the GI50 (NCI/ADR-RES)?
A: > 100 µM (inactive)

Q: And the GI50 (M14)?
A: > 100 µM (inactive)

Q: What about the GI50 (KM12) of the same molecule?
A: > 100 µM (inactive)

Q: And the GI50 (MDA-MB-231)?
A: > 100 µM (inactive)

Q: What about the GI50 (CCRF-CEM) of the same molecule?
A: > 100 µM (inactive)

Q: What about the GI50 (COLO 205) of the same molecule?
A: > 100 µM (inactive)

Q: And the GI50 (NCI-H23)?
A: > 100 µM (inactive)

Q: What about the GI50 (IGROV-1) of the same molecule?
A: > 100 µM (inactive)

Q: What about the GI50 (MDA-MB-435) of the same molecule?
A: > 100 µM (inactive)

Q: What about the GI50 (NCI-H522) of the same molecule?
A: > 100 µM (inactive)

Q: What about the GI50 (SF-539) of the same molecule?
A: > 100 µM (inactive)

Q: What about the GI50 (U-251) of the same molecule?
A: > 100 µM (inactive)

Q: What about the GI50 (UACC-62) of the same molecule?
A: > 100 µM (inactive)

Q: What about the GI50 (ACHN) of the same molecule?
A: > 100 µM (inactive)

Q: And the GI50 (OVCAR-8)?
A: > 100 µM (inactive)

Q: What about the GI50 (SK-MEL-5) of the same molecule?
A: > 100 µM (inactive)

Q: What about the GI50 (SR) of the same molecule?
A: > 100 µM (inactive)

Q: And the GI50 (PC-3)?
A: > 100 µM (inactive)

Q: And the GI50 (EKVX)?
A: > 100 µM (inactive)

Q: What does the source list for `CN1CCN(c2ccc3nc(C4=C(O)C(=O)c5c(nc(CO)n5C)C4=O)[nH]c3n2)CC1`?
A: GI50 (CAKI-1): > 100 µM (inactive); GI50 (HCT-15): > 100 µM; GI50 (T47D): 61.4 µM (inactive); GI50 (HT-29): > 100 µM (inactive); GI50 (OVCAR-3): > 100 µM (inactive); GI50 (HOP-62): > 100 µM (inactive); GI50 (NCI-H226): > 100 µM (inactive); GI50 (HCC 2998): > 100 µM (inactive); GI50 (HL-60): > 100 µM (inactive); GI50 (SNB-19): > 100 µM (inactive); GI50 (HOP-92): > 100 µM (inactive); GI50 (SNB-75): 24.6 µM (inactive); GI50 (UO-31): > 100 µM (inactive); GI50 (A549): > 100 µM (inactive); GI50 (RXF 393): 15.8 µM (inactive); GI50 (786-0): > 100 µM (inactive); GI50 (SF-268): > 100 µM (inactive); GI50 (RPMI-8226): 93.8 µM (inactive); GI50 (MOLT-4): 56.2 µM (inactive); GI50 (OVCAR-5): > 100 µM (inactive); GI50 (SK-MEL-2): 55.1 µM (inactive); GI50 (SF-295): > 100 µM (inactive); GI50 (UACC-257): > 100 µM (inactive); GI50 (SK-OV-3): > 100 µM (inactive); GI50 (HCT-116): > 100 µM (inactive); GI50 (K562): 59.8 µM (inactive); GI50 (OVCAR-4): > 100 µM (inactive); GI50 (Hs-578T): > 100 µM (inactive); GI50 (DU-145): > 100 µM (inactive); GI50 (Malme-3M): > 100 µM (inactive); GI50 (LOX IMVI): > 100 µM (inactive); GI50 (BT-549): > 100 µM (inactive); GI50 (NCI-H460): > 100 µM (inactive); GI50 (NCI/ADR-RES): > 100 µM (inactive); GI50 (M14): > 100 µM (inactive); GI50 (KM12): > 100 µM (inactive); GI50 (SN12C): > 100 µM (inactive); GI50 (MDA-MB-231): > 100 µM (inactive); GI50 (CCRF-CEM): > 100 µM (inactive); GI50 (COLO 205): > 100 µM (inactive); GI50 (NCI-H23): > 100 µM (inactive); GI50 (IGROV-1): > 100 µM (inactive); GI50 (MDA-MB-435): > 100 µM (inactive); GI50 (NCI-H522): > 100 µM (inactive); GI50 (SK-MEL-28): > 100 µM (inactive); GI50 (SF-539): 20.9 µM (inactive); GI50 (SW-620): > 100 µM (inactive); GI50 (U-251): 76.2 µM (inactive); GI50 (UACC-62): 74.3 µM (inactive); GI50 (ACHN): > 100 µM (inactive); GI50 (OVCAR-8): > 100 µM (inactive); GI50 (PC-3): > 100 µM (inactive); GI50 (EKVX): > 100 µM (inactive)

Reference: ChEMBL document CHEMBL1201862, “PubChem BioAssay data set” (2004)
